# In US10294202B2, “Pyrrolidinones as herbicides” (FMC Corporation, priority 2013, dated 2019):
# What was measured:
# barnyardgrass [1] = assay: Test A pre-/postemergence herbicide test; format: in vivo, Echinochloa crus-galli
# Procedure, shortened: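 Both application timings used compounds in a non-phytotoxic solvent plus surfactant. Pre-emergence: soil sprayed directly after seeding into loam/sand. Post-emergence: foliage of 2–10 cm seedlings (1–2 leaves) sprayed. Injury rated ~10 days later, 0–100.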
# rice = assay: Test B flooded paddy test; format: in vivo, Oryza sativa; conditions: 250 g ai/ha, Flood; scale of 0 to 100 where 0 is no effect and 100 is complete control
# Procedure, shortened: (§1)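 Treatment was made at the 2-leaf stage by dosing the standing floodwater, kept 3 cm above soil level for the whole test. Greenhouse exposure lasted 13 to 15 days. Response is a visual percent rating relative to controls, where a dash indicates no test result.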
# barnyardgrass [2] = assay: Test B flooded paddy test; format: in vivo, Echinochloa crus-galli; conditions: 250 g ai/ha, Flood; scale of 0 to 100 where 0 is no effect and 100 is complete control
# Procedure, shortened: as §1
# blackgrass = assay: Test C pre-/postemergence herbicide test; format: in vivo, Alopecurus myosuroides; conditions: Postemergence
# Procedure, shortened: (§2)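 Herbicidal effect was judged by eye 13 to 15 days after treatment in the greenhouse, using a 0–100 scale against controls. Chemicals in a non-phytotoxic solvent with surfactant were sprayed onto planted loam/sand soil or onto plants 2 to 18 cm tall in a peat-based growing medium.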
# corn = assay: Test C pre-/postemergence herbicide test; format: in vivo, Zea mays; conditions: Postemergence
# Procedure, shortened: as §2
# crabgrass, large = assay: Test C pre-/postemergence herbicide test; format: in vivo, Digitaria sanguinalis; conditions: Postemergence
# Procedure, shortened: as §2
# foxtail, giant = assay: Test C pre-/postemergence herbicide test; format: in vivo, Setaria faberii; conditions: Postemergence
# Procedure, shortened: as §2
# lambsquarters = assay: Test C pre-/postemergence herbicide test; format: in vivo, Chenopodium album; conditions: Postemergence
# Procedure, shortened: as §2
# pigweed = assay: Test C pre-/postemergence herbicide test; format: in vivo, Amaranthus retroflexus; conditions: Postemergence
# Procedure, shortened: as §2
# velvetleaf = assay: Test C pre-/postemergence herbicide test; format: in vivo, Abutilon theophrasti; conditions: Postemergence
# Procedure, shortened: as §2
# [3] = 31 g ai/ha, scale 0 (no effect) to 100 (complete control)
# [4] = 62 g ai/ha, scale 0 to 100 (0 no effect, 100 complete control)
# [5] = 125 g ai/ha, scale 0 to 100 (0 no effect, 100 complete control)
# [6] = 250 g ai/ha, scale 0 to 100 (0 no effect, 100 complete control)
smiles,measurement,setting,value
O=C1NCC(c2cc(F)c(F)cc2F)C1C(=O)Nc1cccc(F)c1F (stereo not shown) [Compound 50],"Plant response rating, Barnyardgrass","barnyardgrass [1]; Postemergence, 125 g ai/ha, 0 to 100 scale, 0 no effect, 100 complete control",80
same,"Plant response rating, Barnyardgrass","barnyardgrass [1]; Postemergence, 500 g ai/ha, 0 to 100 scale (0 no effect, 100 complete control)",80
same,Barnyardgrass plant response rating,"barnyardgrass [1]; Preemergence, 125 g ai/ha, visual rating on 0 to 100 scale (0 no effect, 100 complete control)",30
same,"Plant response rating, Barnyardgrass","barnyardgrass [1]; preemergence, 500 g ai/ha, 0 to 100 scale (0 no effect, 100 complete control)",90
same,"Plant response rating, Rice",rice,0
same,"Plant response rating, Barnyardgrass",barnyardgrass [2],0
same,"Plant response rating, Blackgrass",blackgrass; [3],0
same,"Plant response rating, Blackgrass",blackgrass; [4],0
same,"Plant response rating, Blackgrass",blackgrass; [5],0
same,"Plant response rating, Blackgrass",blackgrass; [6],0
same,"Plant response rating, Corn",corn; [3],0
same,"Plant response rating, Corn",corn; [4],0
same,"Plant response rating, Corn",corn; [5],5
same,"Plant response rating, Corn",corn; [6],5
same,"Plant response rating, Crabgrass, Large","crabgrass, large; [3]",10
same,"Plant response rating, Crabgrass, Large","crabgrass, large; [4]",25
same,"Plant response rating, Crabgrass, Large","crabgrass, large; [5]",40
same,"Plant response rating, Crabgrass, Large","crabgrass, large; [6]",75
same,"Plant response rating, Foxtail, Giant","foxtail, giant; [3]",0
same,"Plant response rating, Foxtail, Giant","foxtail, giant; [4]",5
same,"Plant response rating, Foxtail, Giant","foxtail, giant; [5]",5
same,"Plant response rating, Foxtail, Giant","foxtail, giant; [6]",10
same,"Plant response rating, Lambsquarters",lambsquarters; [3],5
same,"Plant response rating, Lambsquarters",lambsquarters; [4],10
same,"Plant response rating, Lambsquarters",lambsquarters; [5],10
same,"Plant response rating, Lambsquarters",lambsquarters; [6],15
same,"Plant response rating, Pigweed",pigweed; [3],10
same,"Plant response rating, Pigweed",pigweed; [4],10
same,"Plant response rating, Pigweed",pigweed; [5],20
same,"Plant response rating, Pigweed",pigweed; [6],20
same,"Plant response rating, Velvetleaf",velvetleaf; [3],0
same,"Plant response rating, Velvetleaf",velvetleaf; [4],15
same,"Plant response rating, Velvetleaf",velvetleaf; [5],25
same,"Plant response rating, Velvetleaf",velvetleaf; [6],45
